The record followed here is US4912104A, “Tricyclic fused pryimidine derivatives, and their use as pharmaceuticals” (Takeda Chemical Industries, Ltd., priority 1987, dated 1990).

One series concerns Carrageenin edema. The series is described as follows: Antiinflammatory action (Carrageenin edema method). In kind it is in vivo, Jcl: SD rats. Particulars: Rattus norvegicus; 50 mg/kg oral, one hour before carrageenin; paw volume 3 hours later; rats; read-out: Inhibition rate, Carrageenin edema. The method, then: (1) Antiinflammatory action (Carrageenin edema method)
Using a group of six Jcl: SD rats (6 week old, male), antiinflammatory action was investigated in accordance with the method of Winter et al. [Proc. Soc. Exp. Biol. Med., 111, 544(1962)]. One hour after the oral administration of 50 mg/kg of a test sample, the animals were injected subcutaneously with 0.05 ml each of a 1% solution of carrageenin in physiological saline solution into a sole. The volume of the hind-paw was measured 3 hours later and compared with that before the injection, and the edema volume was determined from the difference. By comparing the edema volumes of animal groups untreated and treated with test samples, the inhibition rate was determined.
Background: The carrageenan paw model is a standard test of acute inflammation.

The test system of another series is Phenyl quinone writhing. The series is described as follows: Analgesic action (Phenyl quinone writhing method). In kind it is in vivo, Slc: ICR mice. Particulars: Mus musculus, 20 min; 50 mg/kg oral, 30 minutes before phenyl quinone; 20 minutes counting; mice; read-out: Inhibition rate, Phenyl quinone writhing. The method, then: Analgesic action (Phenyl quinone writhing method)
Using a group of 10 Slc: ICR mice (4 week old, male), analgesic action was investigated in accordance with the method of Siegmund et al. [Proc. Soc. Exp. Biol. Med., 95, 729(1957)]. A test sample in a dose of 50 mg/kg was orally administered, and 30 minutes later, a 0.02% aqueous phenyl quinone solution was intraperitoneally injected in the proportion of 0.1 ml relative to 10 g of body weight. Over the period of 20 minutes from the injection, the number of writhings was counted for the individual animals. By comparing the untreated and treated animal groups for the number of reactions, the writhing inhibition rate was determined.
On the technique in general: An intraperitoneal irritant provokes the stretching counted in writhing tests.

Series [1] concerns Reversed passive Arthus reaction. The series is described as follows: Antiinflammatory action (Reversed passive Arthus reaction). In kind it is in vivo, Jcl: SD rats. Particulars: Rattus norvegicus, 1 h; 12.5 mg/kg oral, one hour before the injection of egg albumin; rats; read-out: Inhibition rate, Reversed passive Arthus reaction. The method, then: (2) Antiinflammatory action (Reversed passive Arthus reaction)
A group consisting of six Jcl: SD rats (7 week old, male was used. The hair of the back of the animals was cut, under ether anesthesia, and 1 ml each of a 0.5% solution of egg albumin in physiological saline solution was injected into the tail vein of each test animal, followed by intradermal injection of 0.1 ml of rabbit anti-egg albumin antiserum at each side of the left and right of the back and a further intradermal injection of 0.1 ml of physiological saline solution at the left side. Three hours later, each animal was intravenously injected with 1 ml of 1% Evans' blue physiological saline solution. Thirty minutes later, the test animals were exfoliated and the area(mm^2) of each of the blue spot was measured. The test sample in a dose of 12.5 mg/kg was orally administered one hour before the injection of egg albumin. By comparing the area(mm^2) of the blue spot in the test group with that of the control group, inhibition rate was determined.

The subject of the next series is Jcl: ICR mice. Particulars: mouse, in vivo. Here is the method:
A group of 5 Jcl: Wistar rats (5 week old, 90-110 g body weight, Japan Clea, male) and a group of 5 Jcl: ICR mice (5 week old, 25-30 g body weight, Japan Clea, male) were used. These rats were each administerred orally with 10 ml/kg of the test compound (250 mg/kg), while these mice were each administered orally with 20 ml/kg of the test compound (500 mg/kg).
These oral administrations were made on the form of a suspension in 5% gum arabic vehicle. One week later, the number of dead animals was observed.

Series [2] concerns acute hepatic failure due to P. acnes-LPS. The series is described as follows: Effect against acute hepatic failure due to P. acnes-LPS (anti-lethal effect). In kind it is in vivo, BALB/c mice. Particulars: 0.3 mg/kg, p.o., one hour prior to LPS, 48 hours later; for Anti-lethal effect: Number of dead mice: group of 10, control 10 dead. The method, then: A group of 10 BALB/c mice (7 week old, male) was used. Each mouse was injected into the tail vein with P. acnes killed by heating at a dose of 1 mg/mouse. Seven days later, each mouse was injected intravenously with LPS(1 l μg/mouse) derived from Salmonella enteritidis to cause acute hepatic failure. Usually, in a group of mice intravenously injected with LPS, 90% to 100% of the animals die within 24 hours. Using this model, each compound was tested. Each compound(I) shown in Table 2 was suspended in a 5% gum arabic vehicle and was orally administered to the animals at 0.3 mg/kg one hour prior to the injection of LPS, and then 48 hours later, the number of the dead mice was determined. The mice in the control group were orally given the 5% gum arabic vehicle one hour prior to LPS administration.

In the case of `CCCCn1c(=O)n(CCC)c(=O)c2c3n(nc21)CCN3C` [compound 1], the inhibition in vivo at 50 mg/kg with Carrageenin edema was 70%; in the series with Phenyl quinone writhing, 97%. In series [1], the inhibition in vivo at 12.5 mg/kg is 32%.

For `CCCCn1c(=O)n(CCC)c(=O)c2c3n(nc21)CCN3` [compound 2], the figures for the inhibition in vivo at 50 mg/kg in the series with Carrageenin edema and with Phenyl quinone writhing were 103% and 100%, respectively. The inhibition in vivo at 12.5 mg/kg in series [1] amounted to 65%.

Consider `CCCCn1c(=O)c2c3n(nc2n(CCCC)c1=O)CCN3` [compound 3], for which the inhibition in vivo at 50 mg/kg with Carrageenin edema worked out at 100%; with Phenyl quinone writhing, 98%. The inhibition in vivo at 12.5 mg/kg in series [1] came to 68%.

Consider `CCCCCn1c(=O)n(CCC)c(=O)c2c3n(nc21)CCN3` [compound 6], for which the inhibition in vivo at 50 mg/kg in the series on Carrageenin edema was 105%; in the series on Phenyl quinone writhing it was 96%. Also, the inhibition in vivo at 12.5 mg/kg in series [1] turned out to be 71%.

On to `CCn1c(=O)c2c3n(nc2n(CC)c1=O)CCN3` [compound 7], for which the inhibition in vivo at 50 mg/kg in the series with Carrageenin edema was found to be 99%; with Phenyl quinone writhing it was 52%. In addition, the inhibition in vivo at 12.5 mg/kg in series [1] is 42%.

`CCCn1c(=O)c2c3n(nc2n(CC)c1=O)CCN3` [compound 10]: the values for the inhibition in vivo at 50 mg/kg with Carrageenin edema and in the series with Phenyl quinone writhing were 100% and 87%, respectively. Moreover, the inhibition in vivo at 12.5 mg/kg in series [1] worked out at 36%.

Regarding `CCCn1c(=O)c2c3n(nc2n(CCC)c1=O)CCN3` [compound 13], the “number of dead animals, Mice” value with Jcl: ICR mice was 0. The inhibition in vivo at 50 mg/kg in the series on Carrageenin edema amounted to 97%; with Phenyl quinone writhing it was 95%. Also, the inhibition in vivo at 12.5 mg/kg in series [1] is 65%.

For the compound `CCCn1c(=O)c2c3n(nc2n(CCC(C)C)c1=O)CCN3` [compound 17], the inhibition in vivo at 50 mg/kg stood at 83% with Carrageenin edema and 79% with Phenyl quinone writhing. Besides, the inhibition in vivo at 12.5 mg/kg in series [1] stood at 73%.

`C=CCn1c(=O)n(CCC)c(=O)c2c3n(nc21)CCN3` [compound 18]: the inhibition in vivo at 50 mg/kg in the series on Carrageenin edema is 93%; in the series with Phenyl quinone writhing it was 90%. In addition, the inhibition in vivo at 12.5 mg/kg in series [1] stood at 87%.

As to `C=CCn1c(=O)c2c3n(nc2n(CC=C)c1=O)CCN3` [compound 29], the figures for the inhibition in vivo at 50 mg/kg in the series on Carrageenin edema and in the series on Phenyl quinone writhing were 79% and 80%, respectively. Further, the inhibition in vivo at 12.5 mg/kg in series [1] came to 73%.

As for `CCCn1c(=O)c2c3n(nc2n(CCC)c1=O)CCN3C(=O)CC` [compound 33], the inhibition in vivo at 50 mg/kg came out at 87% in the series with Carrageenin edema and 77% with Phenyl quinone writhing. For the same compound, the inhibition in vivo at 12.5 mg/kg in series [1] came to 87%.

As for `CCCCn1c(=O)n(CCC)c(=O)c2c3n(nc21)CCN3C(C)=O` [compound 40], in the series on Jcl: ICR mice, the “number of dead animals, Mice” value worked out at 0. Besides, the inhibition in vivo at 50 mg/kg in the series with Carrageenin edema was 82%; with Phenyl quinone writhing, 89%. Moreover, the inhibition in vivo at 12.5 mg/kg in series [1] came to 69%.

In the case of `CCCCn1c(=O)n(CCC)c(=O)c2c1nn1cc[nH]c21` [compound 43], the results for the inhibition in vivo at 50 mg/kg in the series with Carrageenin edema and in the series on Phenyl quinone writhing were 109% and 89%, respectively. Besides, in series [1], the inhibition in vivo at 12.5 mg/kg came out at 90%. Also, in series [2], the “Anti-lethal effect: effective ratio” value turned out to be 100%. The “Anti-lethal effect: Number of dead mice” value in series [2] came to 0.

For `CCCn1c(=O)c2c(nn3cc[nH]c23)n(CCC)c1=O` [compound 44], the values for the inhibition in vivo at 50 mg/kg in the series on Carrageenin edema and in the series with Phenyl quinone writhing were 90% and 96%, respectively. The inhibition in vivo at 12.5 mg/kg in series [1] turned out to be 91%. In addition, the “Anti-lethal effect: effective ratio” value in series [2] was found to be 100%. Also, in series [2], the “Anti-lethal effect: Number of dead mice” value amounted to 0.

With `C=CCn1c(=O)c2c(nn3cc[nH]c23)n(CC=C)c1=O` [compound 45], in the series on Carrageenin edema, the inhibition in vivo at 50 mg/kg came to 85%. The inhibition in vivo at 50 mg/kg in the series on Phenyl quinone writhing is 87%. The inhibition in vivo at 12.5 mg/kg in series [1] was found to be 74%. In addition, in series [2], the “Anti-lethal effect: effective ratio” value is 100% and the “Anti-lethal effect: Number of dead mice” value is listed as 0.

Take `CCCCn1c(=O)c2c(nn3cc[nH]c23)n(CCCC)c1=O` [compound 46]: the inhibition in vivo at 50 mg/kg in the series with Carrageenin edema came to 90%. For the same compound, the inhibition in vivo at 50 mg/kg in the series with Phenyl quinone writhing turned out to be 96%. Also, in series [1], the inhibition in vivo at 12.5 mg/kg turned out to be 70%. In series [2], the “Anti-lethal effect: effective ratio” value was 80% and the “Anti-lethal effect: Number of dead mice” value was found to be 2.

`CCCn1c(=O)c2c(nn3cc[nH]c23)n(CC(C)C)c1=O` [compound 48]: the inhibition in vivo at 50 mg/kg in the series on Carrageenin edema is 95%; in the series on Phenyl quinone writhing, 91%. The inhibition in vivo at 12.5 mg/kg in series [1] is 93%. The “Anti-lethal effect: effective ratio” value in series [2] is 90%. Also, the “Anti-lethal effect: Number of dead mice” value in series [2] amounted to 1.

For the compound `C=CCn1c(=O)n(CCC)c(=O)c2c1nn1cc[nH]c21` [compound 49], the inhibition in vivo at 50 mg/kg in the series with Carrageenin edema and in the series with Phenyl quinone writhing was 80% in each case. Further, the inhibition in vivo at 12.5 mg/kg in series [1] was 88%. Also, the “Anti-lethal effect: effective ratio” value in series [2] turned out to be 70%. Also, in series [2], the “Anti-lethal effect: Number of dead mice” value came out at 3.

`CCCCCn1c(=O)n(CCC)c(=O)c2c1nn1cc[nH]c21` [compound 50]: the values for the inhibition in vivo at 50 mg/kg in the series with Carrageenin edema and in the series with Phenyl quinone writhing were 78% and 89%, respectively. The inhibition in vivo at 12.5 mg/kg in series [1] came to 79%. Also, the “Anti-lethal effect: effective ratio” value in series [2] came to 90%. Further, the “Anti-lethal effect: Number of dead mice” value in series [2] is given as 1.
